Assay results as given in ChEMBL document CHEMBL4831480, “Identification of First-in-Class Inhibitors of Kallikrein-Related Peptidase 6 That Promote Oligodendrocyte Differentiation” (J Med Chem, 2021).
Calls of active or inactive are those of the source. No cut-off for these calls is given here.

Assays:
Kallikrein-6 [1] = target: T1, Kallikrein-6 (Homo sapiens, UniProt Q92876); test: Inhibition of KLK6 (unknown origin) assessed as release of AMC fluorescent product using Boc-QAR-AMC as substrate incubated for 30 mins by microplate reader; conditions: read-out: IC50
Kallikrein-6 [2] = target: T1, Kallikrein-6; test: Competitive inhibition of KLK6 (unknown origin) using Boc-QAR-AMC as substrate incubated for 30 mins by Dixon plot analysis
[3] = target: T2, Kallikrein-8 (Homo sapiens) (UniProt O60259); test: Inhibition of KLK8 (unknown origin) assessed as inhibition of release of AMC fluorescent product using H-VPR-AMC as substrate at 10 uM incubated for 30 mins by microplate reader relative to control
T2 sequence (whole entry): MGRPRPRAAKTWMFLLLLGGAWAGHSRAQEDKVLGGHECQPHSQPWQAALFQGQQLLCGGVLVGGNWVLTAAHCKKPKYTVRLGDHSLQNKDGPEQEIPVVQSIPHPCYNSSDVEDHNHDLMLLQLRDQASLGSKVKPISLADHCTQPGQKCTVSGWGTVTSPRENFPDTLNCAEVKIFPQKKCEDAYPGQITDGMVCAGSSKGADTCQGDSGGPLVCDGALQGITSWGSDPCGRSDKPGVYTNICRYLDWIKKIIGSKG

[4] = target: T3, Kallikrein-13 (Homo sapiens) (UniProt Q9UKR3); test: Inhibition of KLK13 (unknown origin) assessed as inhibition of release of AMC fluorescent product using H-VPR-AMC as substrate at 10 uM incubated for 30 mins by microplate reader relative to control
T3 sequence (whole entry): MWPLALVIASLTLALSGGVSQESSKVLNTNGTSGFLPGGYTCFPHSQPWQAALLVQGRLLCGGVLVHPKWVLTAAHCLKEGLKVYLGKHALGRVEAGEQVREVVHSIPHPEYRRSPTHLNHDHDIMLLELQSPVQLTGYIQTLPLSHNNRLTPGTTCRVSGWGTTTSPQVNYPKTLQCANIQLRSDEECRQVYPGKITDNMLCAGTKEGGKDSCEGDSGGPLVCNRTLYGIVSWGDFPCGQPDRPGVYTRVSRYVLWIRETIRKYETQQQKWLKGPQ

Trypsin (Homo sapiens) = Trypsin (Homo sapiens) (UniProt P07477+P07478+P35030); test: Inhibition of Trypsin (unknown origin) assessed as inhibition of release of AMC fluorescent product using […] as substrate at 10 uM incubated for 30 mins by microplate reader relative to control; type: protein assay
Trypsin-3 (Homo sapiens) = target: T4, Trypsin-3 (Homo sapiens) (UniProt P35030); test: Inhibition of Trypsin 3 (unknown origin) assessed as inhibition of release of AMC fluorescent product using […] as substrate at 10 uM incubated for 30 mins by microplate reader relative to control
T4 sequence (whole entry): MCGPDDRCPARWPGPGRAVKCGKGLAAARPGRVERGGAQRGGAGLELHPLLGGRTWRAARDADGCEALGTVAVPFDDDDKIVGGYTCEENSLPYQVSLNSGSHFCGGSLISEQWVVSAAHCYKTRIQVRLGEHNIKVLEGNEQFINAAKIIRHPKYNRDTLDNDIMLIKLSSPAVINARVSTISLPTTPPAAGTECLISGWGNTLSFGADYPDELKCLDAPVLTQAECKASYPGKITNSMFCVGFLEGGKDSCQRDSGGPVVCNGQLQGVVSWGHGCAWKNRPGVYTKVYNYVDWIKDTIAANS

Prothrombin/thrombin = test: Inhibition of Thrombin (unknown origin) assessed as inhibition of release of AMC fluorescent product using […] as substrate at 10 uM incubated for 30 mins by microplate reader relative to control; conditions: Homo sapiens
[5] = target: Kallikrein-7 (Homo sapiens) (UniProt P49862); test: Inhibition of KLK7 (unknown origin) assessed as inhibition of release of AMC fluorescent product using MeO-Suc-RPY-AMC as substrate at 10 uM incubated for 30 mins by microplate reader relative to control
Kallikrein-7 (Homo sapiens), sequence (P49862 30-253 limits assumed): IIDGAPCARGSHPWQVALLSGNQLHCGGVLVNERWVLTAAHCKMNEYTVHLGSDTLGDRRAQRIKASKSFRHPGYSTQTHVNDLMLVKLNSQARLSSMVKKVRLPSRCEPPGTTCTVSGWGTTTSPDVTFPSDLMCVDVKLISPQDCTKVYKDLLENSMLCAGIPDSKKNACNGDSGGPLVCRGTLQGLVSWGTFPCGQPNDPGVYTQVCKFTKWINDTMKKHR

Cortical neurone [6] = test: Cytotoxicity against Swiss mouse cortical cells assessed as cell viability at 25 uM incubated for 24 hrs by XTT assay; type: cell-based
CG-4 [7] = test: Induction of oligodendrocyte differentiation in Sprague-Dawley rat CG-4 cells assessed as matured oligodendrocyte by measuring increase in mCherry positive cells at 2 uM measured after 4 days by fluorescence imaging analysis; type: functional, cell-based; conditions: time 4.0 day
[8] = Cytotoxicity against Sprague-Dawley rat CG-4 cells assessed as cell death at 30 uM measured after 4 days by fluorescence imaging analysis; type: cell-based; conditions: cg-4, 96 h, time 4 day
Plasminogen = Plasminogen (Homo sapiens, UniProt P00747); test: Competitive inhibition of plasmin (unknown origin) using Boc-QAR-AMC as substrate incubated for 30 mins by Dixon plot analysis
Plasminogen, sequence (P00747 97-580 limits assumed): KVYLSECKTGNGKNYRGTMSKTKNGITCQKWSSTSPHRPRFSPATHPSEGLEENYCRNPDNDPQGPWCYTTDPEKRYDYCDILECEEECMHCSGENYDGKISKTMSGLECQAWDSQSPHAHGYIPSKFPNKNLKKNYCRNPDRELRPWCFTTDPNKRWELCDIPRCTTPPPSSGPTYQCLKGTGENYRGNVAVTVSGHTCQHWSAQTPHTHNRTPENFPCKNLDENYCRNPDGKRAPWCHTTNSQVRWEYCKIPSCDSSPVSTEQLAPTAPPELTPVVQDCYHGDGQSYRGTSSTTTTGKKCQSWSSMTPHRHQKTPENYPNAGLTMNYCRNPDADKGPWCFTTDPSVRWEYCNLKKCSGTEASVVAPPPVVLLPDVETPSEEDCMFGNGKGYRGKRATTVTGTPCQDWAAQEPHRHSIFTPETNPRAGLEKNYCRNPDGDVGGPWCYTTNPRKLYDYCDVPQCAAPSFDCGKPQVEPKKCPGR
Plasminogen, sequence (P00747 581-810 limits assumed): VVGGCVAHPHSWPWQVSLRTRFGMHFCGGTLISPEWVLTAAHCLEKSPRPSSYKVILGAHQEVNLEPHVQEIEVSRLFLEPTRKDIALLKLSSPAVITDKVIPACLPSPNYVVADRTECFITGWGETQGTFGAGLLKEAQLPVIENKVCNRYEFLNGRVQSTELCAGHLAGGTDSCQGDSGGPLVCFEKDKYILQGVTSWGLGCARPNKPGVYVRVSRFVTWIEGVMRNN

Cortical neurone [9] = test: Cytotoxicity against Swiss mouse cortical cells assessed as cell viability at 10 uM incubated for 24 hrs by XTT assay; type: cell-based
[10] = Cytotoxicity against Swiss mouse cortical cells assessed as cell viability at 50 uM incubated for 24 hrs by XTT assay; type: cell-based, Cortical neurone; conditions: mouse cortical cells (cortical neurones), read-out: Activity
Kallikrein-1 = Kallikrein-1 (Homo sapiens, UniProt P06870); test: Competitive inhibition of KLK1 (unknown origin) assessed as release of AMC fluorescent product using H-PFR-AMC as substrate incubated for 30 mins by microplate reader
Kallikrein-1, sequence (P06870 whole entry): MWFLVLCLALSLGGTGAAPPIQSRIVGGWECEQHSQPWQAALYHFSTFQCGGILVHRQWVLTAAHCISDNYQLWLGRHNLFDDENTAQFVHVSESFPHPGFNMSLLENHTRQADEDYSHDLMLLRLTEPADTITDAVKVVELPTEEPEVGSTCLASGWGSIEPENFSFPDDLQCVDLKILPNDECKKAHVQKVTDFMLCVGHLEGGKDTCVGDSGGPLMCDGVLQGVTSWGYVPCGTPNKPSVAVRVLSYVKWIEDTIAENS

[11] = Toxicity in human blood assessed as effect on activated partial thromboplastin time; type: tissue-based
[12] = Toxicity in human blood assessed as effect on prothrombin ratio; type: tissue-based
[13] = Permeability in human Caco-2 cells assessed as compound recovery; type: ADME, cell-based; conditions: read-out: Activity
[14] = Metabolic stability in human liver microsomes assessed as half life; type: ADME, Microsome
[15] = target: Voltage-gated inwardly rectifying potassium channel KCNH2 (Homo sapiens, UniProt Q12809); test: Inhibition of human ERG
Voltage-gated inwardly rectifying potassium channel KCNH2, sequence (Q12809 whole entry): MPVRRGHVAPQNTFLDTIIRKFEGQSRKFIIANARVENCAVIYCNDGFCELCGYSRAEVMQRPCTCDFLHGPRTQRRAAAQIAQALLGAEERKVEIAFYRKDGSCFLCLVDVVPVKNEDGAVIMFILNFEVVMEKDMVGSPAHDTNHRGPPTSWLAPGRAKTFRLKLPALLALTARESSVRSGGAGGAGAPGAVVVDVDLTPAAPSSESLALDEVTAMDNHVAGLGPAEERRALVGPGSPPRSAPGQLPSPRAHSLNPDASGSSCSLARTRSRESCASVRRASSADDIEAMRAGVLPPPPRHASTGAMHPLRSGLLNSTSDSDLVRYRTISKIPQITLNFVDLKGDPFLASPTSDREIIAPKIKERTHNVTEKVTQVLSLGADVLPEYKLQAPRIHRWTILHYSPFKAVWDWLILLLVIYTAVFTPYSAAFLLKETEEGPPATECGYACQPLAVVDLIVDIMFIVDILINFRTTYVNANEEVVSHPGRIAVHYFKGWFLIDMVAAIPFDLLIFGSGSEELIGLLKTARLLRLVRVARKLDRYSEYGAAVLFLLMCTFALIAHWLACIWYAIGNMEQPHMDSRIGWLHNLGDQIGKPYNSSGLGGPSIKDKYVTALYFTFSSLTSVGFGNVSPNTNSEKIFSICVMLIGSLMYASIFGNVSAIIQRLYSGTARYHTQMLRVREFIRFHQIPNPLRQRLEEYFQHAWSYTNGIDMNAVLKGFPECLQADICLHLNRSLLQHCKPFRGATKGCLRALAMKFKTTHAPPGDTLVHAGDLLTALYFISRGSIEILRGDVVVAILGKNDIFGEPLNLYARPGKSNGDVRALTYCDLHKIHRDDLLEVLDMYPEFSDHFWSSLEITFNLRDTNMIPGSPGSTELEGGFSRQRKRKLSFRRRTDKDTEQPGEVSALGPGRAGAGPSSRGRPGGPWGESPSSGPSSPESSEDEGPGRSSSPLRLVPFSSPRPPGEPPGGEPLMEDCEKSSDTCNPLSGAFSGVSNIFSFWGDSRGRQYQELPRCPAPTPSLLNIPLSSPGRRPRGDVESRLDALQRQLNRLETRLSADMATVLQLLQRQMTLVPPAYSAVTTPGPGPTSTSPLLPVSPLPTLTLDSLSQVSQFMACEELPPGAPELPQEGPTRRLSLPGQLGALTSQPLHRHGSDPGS

Microglia [16] = test: Anti-inflammatory activity in new born Wistar rat brain microglia assessed as reduction in LPS-induced TNFalpha expression measured after 24 hrs by ELISA
Microglia [17] = test: Anti-inflammatory activity in new born Wistar rat brain microglia assessed as reduction in LPS-induced IL-1beta expression measured after 24 hrs by ELISA
CG-4 [18] = test: Induction of oligodendrocyte differentiation in Sprague-Dawley rat CG-4 cells assessed as matured oligodendrocyte by measuring increase in mCherry positive cells at 6 to 8 uM measured after 4 days by fluorescence imaging analysis; type: functional, cell-based; conditions: dose 6-8 µM, time 4.0 day

IC50 (Kallikrein-6 [1]) [µM]	Ki (Kallikrein-6 [2]) [µM]	inhibition [3] [%]	inhibition [4] [%]	inhibition (Trypsin (Homo sapiens)) [%]	inhibition (Trypsin-3 (Homo sapiens)) [%]	inhibition (Prothrombin/thrombin) [%]	inhibition [5] [%]	SMILES	other results
3.63	1.5	58	15	91	73	32	7	CC(C)c1ccc(C(=O)Nc2ccc(CN)cc2)c(O)c1	–
–	–	53	12	32	21	6	11	Cc1ccc2ccc(C(=O)Nc3ccc(CN)cc3)c(O)c2c1	–
–	–	45	0	41	32	–	10	COc1ccc2c(O)c(C(=O)Nc3ccc(CN)cc3)ccc2c1	–
2.37	2	34	10	15	20	0	12	Cc1ccc(C(=O)Nc2ccc(CN)cc2)c(O)c1.Cl	viability at 24 h, 50 µM [10]: 65%; Activity (CG-4 [18]): Active; Activity [11]: Non-Toxic; Activity [12]: Non-Toxic; recovery [13]: > 90%; half-life [14]: > 2 h; Activity [15]: Not Active; Activity (Microglia [16]): inactive; Activity (Microglia [17]): inactive

More lines, now with the values behind:

SMILES	IC50 (Kallikrein-6 [1]) [µM]	Ki (Kallikrein-6 [2]) [µM]	inhibition [3] [%]	inhibition [4] [%]	inhibition (Trypsin (Homo sapiens)) [%]	inhibition (Trypsin-3 (Homo sapiens)) [%]	inhibition (Prothrombin/thrombin) [%]	inhibition [5] [%]	other results
CC(C)(C)c1ccc(O)c(C(=O)Nc2ccc(CN)cc2)c1.Cl	–	4.3	16	5	5	15	2	9	Activity (Cortical neurone [6]): Toxic; Activity (CG-4 [7]): Active; Activity [8]: Toxic
Cl.NCc1ccc(NC(=O)c2ccc3ccccc3c2O)cc1	6.9	2.4	22	2	34	30	5	0	Ki (Plasminogen): 1.5 µM; Activity (Cortical neurone [9]): Toxic
Cl.NCc1ccc(NC(=O)c2cc3ccccc3cc2O)cc1	–	–	61	19	25	36	–	6	viability at 24 h, 50 µM [10]: 65%; Ki (Plasminogen): 1.3 µM; Ki (Kallikrein-1): 2.4 µM; Activity [11]: Non-Toxic; Activity [12]: Non-Toxic; recovery [13]: > 90%; half-life [14]: > 2 h; Activity [15]: Not Active; Activity (Microglia [16]): Active; Activity (Microglia [17]): Active
